Reference: US8835472B2, “Compounds, pharmaceutical compositions and uses thereof” (Boehringer Ingelheim International GmbH, priority 2010, dated 2014)

target: human ACC2 (Homo sapiens (Human), UniProt O00763); experiment: ACC2 assay, spectrophotometric 384 well assay (NADH-linked, coupled lactate dehydrogenase/pyruvate kinase reaction); format: biochemical; conditions: hACC2 construct lacking the 128 N-terminal amino acids; 25° C., 340 nm over 15 minutes
Summary of the method: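 Kinetic NADH-linked assay (pyruvate kinase/lactate dehydrogenase coupling) with baculovirus-expressed hACC2 missing its first 128 amino acids. Started with 500 μM ATP and 200 μM each NADH and acetyl-CoA; slope followed 15 min at 25 °C, pH 7.5. No-acetyl-CoA wells define 0%; IC50 by nonlinear regression.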

human ACC2, sequence (O00763 129-2458): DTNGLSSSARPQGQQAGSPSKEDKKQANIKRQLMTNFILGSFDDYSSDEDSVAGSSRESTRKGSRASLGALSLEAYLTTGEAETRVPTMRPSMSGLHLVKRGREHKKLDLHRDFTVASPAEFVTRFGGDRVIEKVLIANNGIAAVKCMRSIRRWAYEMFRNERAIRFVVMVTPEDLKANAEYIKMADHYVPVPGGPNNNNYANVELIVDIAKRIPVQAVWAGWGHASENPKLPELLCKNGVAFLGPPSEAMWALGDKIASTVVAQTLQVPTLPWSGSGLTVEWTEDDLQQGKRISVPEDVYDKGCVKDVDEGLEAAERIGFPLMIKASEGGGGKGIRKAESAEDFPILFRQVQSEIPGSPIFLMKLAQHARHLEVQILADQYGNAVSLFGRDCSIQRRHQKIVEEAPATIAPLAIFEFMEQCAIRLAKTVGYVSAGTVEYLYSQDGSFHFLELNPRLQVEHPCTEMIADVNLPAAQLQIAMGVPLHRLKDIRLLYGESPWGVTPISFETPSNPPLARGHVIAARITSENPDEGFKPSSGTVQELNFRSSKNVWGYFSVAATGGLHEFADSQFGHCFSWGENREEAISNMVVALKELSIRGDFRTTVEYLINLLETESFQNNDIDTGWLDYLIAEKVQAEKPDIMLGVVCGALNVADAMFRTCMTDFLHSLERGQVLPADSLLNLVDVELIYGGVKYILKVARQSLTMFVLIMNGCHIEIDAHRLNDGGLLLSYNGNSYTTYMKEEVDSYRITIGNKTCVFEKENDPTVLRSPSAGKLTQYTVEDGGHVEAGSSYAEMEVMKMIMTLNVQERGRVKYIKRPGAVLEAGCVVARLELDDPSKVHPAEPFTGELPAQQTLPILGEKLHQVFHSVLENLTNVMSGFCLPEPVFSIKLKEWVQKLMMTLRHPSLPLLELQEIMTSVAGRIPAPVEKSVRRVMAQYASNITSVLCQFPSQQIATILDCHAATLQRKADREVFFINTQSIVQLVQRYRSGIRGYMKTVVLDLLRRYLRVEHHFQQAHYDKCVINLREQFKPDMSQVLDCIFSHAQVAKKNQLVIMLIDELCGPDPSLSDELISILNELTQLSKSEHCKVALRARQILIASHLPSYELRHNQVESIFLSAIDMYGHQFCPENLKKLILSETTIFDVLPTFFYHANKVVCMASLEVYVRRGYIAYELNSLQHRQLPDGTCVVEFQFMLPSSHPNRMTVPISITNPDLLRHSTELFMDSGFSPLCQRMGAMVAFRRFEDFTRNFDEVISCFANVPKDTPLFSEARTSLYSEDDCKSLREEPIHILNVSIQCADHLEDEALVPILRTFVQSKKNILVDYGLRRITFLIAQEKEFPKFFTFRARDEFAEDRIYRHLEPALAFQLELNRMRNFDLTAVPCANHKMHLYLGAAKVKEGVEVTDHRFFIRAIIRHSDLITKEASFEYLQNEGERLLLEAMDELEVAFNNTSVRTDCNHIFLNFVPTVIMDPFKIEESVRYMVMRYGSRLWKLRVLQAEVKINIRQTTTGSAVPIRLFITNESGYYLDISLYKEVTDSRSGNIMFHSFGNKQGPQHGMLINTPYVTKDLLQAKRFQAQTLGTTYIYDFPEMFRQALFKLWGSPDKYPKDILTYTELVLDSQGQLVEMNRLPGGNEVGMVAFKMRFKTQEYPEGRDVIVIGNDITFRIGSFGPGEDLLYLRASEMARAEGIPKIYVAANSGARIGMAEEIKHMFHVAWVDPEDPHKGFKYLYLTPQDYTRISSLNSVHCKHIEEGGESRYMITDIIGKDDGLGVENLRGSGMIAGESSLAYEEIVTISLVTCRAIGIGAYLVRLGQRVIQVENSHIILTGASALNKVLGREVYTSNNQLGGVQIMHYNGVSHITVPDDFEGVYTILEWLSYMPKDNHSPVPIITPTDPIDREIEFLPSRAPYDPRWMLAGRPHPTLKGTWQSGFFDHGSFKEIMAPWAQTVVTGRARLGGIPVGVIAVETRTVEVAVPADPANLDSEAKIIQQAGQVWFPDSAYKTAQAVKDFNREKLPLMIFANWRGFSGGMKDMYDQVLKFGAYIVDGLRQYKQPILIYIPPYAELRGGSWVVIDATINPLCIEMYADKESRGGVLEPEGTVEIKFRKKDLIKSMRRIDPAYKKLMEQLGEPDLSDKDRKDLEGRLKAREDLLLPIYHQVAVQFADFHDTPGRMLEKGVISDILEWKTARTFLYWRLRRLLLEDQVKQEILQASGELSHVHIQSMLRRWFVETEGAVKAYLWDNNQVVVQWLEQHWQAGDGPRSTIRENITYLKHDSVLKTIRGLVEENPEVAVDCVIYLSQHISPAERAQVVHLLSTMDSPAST

Row | Compound | IC50 [nM]
1 | CC(=O)NC(C)Cc1ccc(C#Cc2cnn(Cc3ccccc3)c2)cc1 (stereo not shown) [Example 2.108] | 300
2 | CC(=O)NC(C)Cc1ccc(C#Cc2ccc(Oc3ccccc3)nn2)cc1 (stereo not shown) [Example 2.77] | 1500
3 | CCCOc1cc(C#Cc2ccc(C(C)NC(C)=O)cc2)ccn1 (stereo not shown) [Example 14.3] | 450
4 | CCC(CC)Nc1ncc(C#Cc2ccc(CC(C)NC(C)=O)cc2)cn1 (stereo not shown) [Example 13.81] | 330
5 | CCOc1cc(C#Cc2ccc(CC(C)NC(=O)C3CC3)cc2)ccn1 (stereo not shown) [Example 2.60] | 690
6 | CC(=O)NC(C)Cc1ccc(C#Cc2ccnc(OC(C)C)c2)cc1 (stereo not shown) [Example 2.97] | 140
7 | CC(Cc1ccc(C#Cc2ccc(OC3CCCC3)cc2)cc1)NC(=O)C1CC1 (stereo not shown) [Example 14.47] | 80
8 | CCOc1ccc(C#Cc2ccc(CC(C)NC(=O)c3cnco3)cc2)cc1 (stereo not shown) [Example 4.38] | 170
9 | CC(=O)NC(C)c1ccc(C#Cc2ccc(OC(C)(C)C)cc2)cc1 (stereo not shown) [Example 2.44] | 420
10 | CCOc1ccc(C#Cc2ccc(CC(C)NC(=O)CCNC(C)=O)cc2)cc1 (stereo not shown) [Example 4.70] | 1300
11 | CC(=O)NC(C)Cc1ccc(C#Cc2ccc(OC(C)c3ccncc3)cc2)cc1 (stereo not shown) [Example 9.25] | 2500
12 | CCCCOc1ccc(C#Cc2ccc(CC(C)NC(C)=O)cc2)cc1 (stereo not shown) [Example 9.3] | 90
13 | CC(=O)NC(C)Cc1ccc(C#Cc2ccc(OCc3ccco3)cc2)cc1 (stereo not shown) [Example 9.16] | 260
14 | CC(=O)NC(C)Cc1ccc(C#Cc2cccc(C(=O)N3Cc4ccccc4C3)c2)cc1 (stereo not shown) [Example 8.42] | 30000
15 | CC(=O)NC(C)Cc1ccc(C#Cc2ccc(C(C)(C)C)cc2)cc1 (stereo not shown) [25.1] | 140
16 | CCOc1ccc(C#Cc2ccc(CC(C)NC(=O)C(=O)N(C)C)cc2)cc1 (stereo not shown) [Example 4.61] | 10100
17 | CCOc1ccc(C#Cc2ccc(CC(C)N(C)C(C)=O)cc2)cc1 (stereo not shown) [Example 18.1, N-{2-[4-(4-Ethoxy-phenylethynyl)-phenyl]-1-methyl-ethyl}-N-methyl-acetamide] | 13700
18 | CCN(CC)CCOc1ccc(C#Cc2ccc(CC(C)NC(C)=O)cc2)cc1 (stereo not shown) [Example 9.18] | 14900
19 | COC(=O)NC(C)Cc1ccc(C#Cc2cnc(NCc3cccnc3)nc2)cc1 (stereo not shown) [Example 13.33] | 1800
